Results: patent US12599136B2, “Substituted isophthalic acid diamides and their use as herbicides” (Bayer Aktiengesellschaft, priority 2020, dated 2026)

Experiments:
Type in all cases: in vivo
[1] = tested on: Alopecurus myosuroides; assay: Post-emergence herbicidal action against ALOMY
Summary of the method: (§1)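 Visual % rating (0% = as untreated, 100% = dead) ~3 wk after spraying one-leaf-stage plants grown in sandy loam; WP/EC in water at 600–800 l/ha, 0.2% wetting agent.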

[2] = tested on: Amaranthus retroflexus; assay: Pre-emergence herbicidal action against AMARE; details: visual score after 3 weeks vs untreated controls
Summary of the method: (§2)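 Sandy loam pots, seeds covered with soil, then surface-treated with WP or EC formulations at 600–800 l/ha water plus 0.2% wetting agent. Greenhouse, 3 weeks. Percent damage vs untreated controls.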

[3] = tested on: Viola tricolor; assay: Pre-emergence herbicidal action against VIOTR; details: 80 g/ha
Summary of the method: as §2

[4] = tested on: Pharbitis purpurea; assay: Post-emergence herbicidal action against PHBPU; details: visual assessment about 3 weeks after treatment
Summary of the method: as §1

[5] = tested on: Setaria viridis; assay: Pre-emergence herbicidal action against SETVI; details: 80 g/ha
Summary of the method: as §2

[6] = tested on: Alopecurus myosuroides; assay: Pre-emergence herbicidal action against ALOMY; details: visual score after 3 weeks vs untreated controls
Summary of the method: as §2

[7] = tested on: Amaranthus retroflexus; assay: Post-emergence herbicidal action against AMARE; details: visual assessment about 3 weeks after treatment
Summary of the method: as §1

[8] = tested on: Viola tricolor; assay: Post-emergence herbicidal action against VIOTR
Summary of the method: as §1

[9] = tested on: Echinochloa crus-galli; assay: Pre-emergence herbicidal action against ECHCG; details: 80 g/ha; visual score after 3 weeks vs untreated controls
Summary of the method: as §2

[10] = tested on: Matricaria inodora; assay: Pre-emergence herbicidal action against MATIN; details: visual score after 3 weeks vs untreated controls
Summary of the method: as §2

[11] = tested on: Avena fatua; assay: Pre-emergence herbicidal action against AVEFA; details: 80 g/ha; visual score after 3 weeks vs untreated controls
Summary of the method: as §2

[12] = tested on: Polygonum convolvulus; assay: Pre-emergence herbicidal action against POLCO; details: 80 g/ha
Description: (§3) Seeds of monocotyledonous and dicotyledonous weed plants and crop plants are laid out in sandy loam soil in wood-fiber pots and covered with soil. The compounds of the invention, formulated in the form of wettable powders (WP) or as emulsion concentrates (EC), are then applied to the surface of the covering soil in the form of an aqueous suspension or emulsion at a water application rate equivalent to 600 to 800 l/ha, with addition of 0.2% wetting agent. After the treatment, the pots are placed in a greenhouse and kept under good growth conditions for the trial plants. The damage to the test plants is scored visually after a test period of 3 weeks by comparison with untreated controls (herbicidal activity in percent (%): 100% activity=the plants have died, 0% activity=like control plants). […] The tables below illustrate, in an illustrative manner, the post-emergence herbicidal action of the compounds of the invention, the herbicidal activity being stated in percent.

[13] = tested on: Matricaria inodora; assay: Post-emergence herbicidal action against MATIN; details: visual assessment about 3 weeks after treatment
Summary of the method: as §1

[14] = tested on: Lolium rigidum; assay: Pre-emergence herbicidal action against LOLRI; details: 80 g/ha
Description: as §3

[15] = tested on: Abutilon theophrasti; assay: Pre-emergence herbicidal action against ABUTH; details: visual score after 3 weeks vs untreated controls
Summary of the method: as §2

[16] = tested on: Abutilon theophrasti; assay: Post-emergence herbicidal action against ABUTH
Summary of the method: as §1

[17] = tested on: Echinochloa crus-galli; assay: Post-emergence herbicidal action against ECHCG; details: visual assessment about 3 weeks after treatment
Summary of the method: as §1

[18] = tested on: Veronica persica; assay: Post-emergence herbicidal action against VERPE; details: visual assessment about 3 weeks after treatment
Summary of the method: as §1

[19] = tested on: Setaria viridis; assay: Post-emergence herbicidal action against SETVI; details: visual assessment about 3 weeks after treatment
Summary of the method: as §1

[20] = tested on: Veronica persica; assay: Pre-emergence herbicidal action against VERPE
Summary of the method: as §2

[21] = tested on: Avena fatua; assay: Post-emergence herbicidal action against AVEFA; details: 20 g/ha, visual assessment about 3 weeks after treatment
Experimental: Seeds of monocotyledonous and dicotyledonous weed and crop plants are laid out in sandy loam soil in wood-fiber pots, covered with soil and cultivated in a greenhouse under good growth conditions. 2 to 3 weeks after sowing, the test plants are treated at the one-leaf stage. The compounds of the invention, formulated in the form of wettable powders (WP) or as emulsion concentrates (EC), are then sprayed onto the green parts of the plants in the form of an aqueous suspension or emulsion at a water application rate equivalent to 600 to 800 l/ha, with addition of 0.2% wetting agent. After the test plants have been left to stand in the greenhouse under optimal growth conditions for about 3 weeks, the action of the preparations is assessed visually in comparison to untreated controls (herbicidal action in percent (%): 100% activity=the plants have died, 0% activity=like control plants). […] The tables below illustrate, in an illustrative manner, the post-emergence herbicidal action of the compounds of the invention, the herbicidal activity being stated in percent.

SMILES | Pre-emergence action against AMARE ([2]; 20 g/ha) [%] | Pre-emergence action against AMARE ([2]; 80 g/ha) [%] | Pre-emergence action against VIOTR [3] [%] | Pre-emergence action against SETVI [5] [%] | Pre-emergence action against ALOMY ([6]; 80 g/ha) [%] | Post-emergence action against AMARE in % ([7]; 5 g/ha) [%] | Post-emergence action against AMARE in % ([7]; 20 g/ha) [%] | Post-emergence action against VIOTR in % ([8]; 5 g/ha) [%] | Post-emergence action against VIOTR in % ([8]; 20 g/ha) [%] | Pre-emergence action against ECHCG [9] [%] | Pre-emergence action against MATIN ([10]; 20 g/ha) [%] | Pre-emergence action against MATIN ([10]; 80 g/ha) [%] | Pre-emergence action against AVEFA [11] [%] | Pre-emergence action against POLCO [12] [%] | Post-emergence action against MATIN in % ([13]; 5 g/ha) [%] | Post-emergence action against MATIN in % ([13]; 20 g/ha) [%] | Pre-emergence action against LOLRI [14] [%] | Pre-emergence action against ABUTH ([15]; 20 g/ha) [%] | Pre-emergence action against ABUTH ([15]; 80 g/ha) [%] | Post-emergence action against ABUTH ([16]; 20 g/ha) [%] | other results
CN(CC(F)F)C(=O)c1c(C(F)F)ccc(C(=O)Nc2nnnn2C)c1Cl [Example 1-159] | 100 | 100 | 100 | 100 | 90 | 100 | 100 | 80 | 90 | 100 | 90 | 100 | 80 | 80 | 80 | 90 | 80 | 100 | 100 | 90 | Post-emergence action against ALOMY ([1]; 5 g/ha): 90%; Post-emergence action against ALOMY ([1]; 20 g/ha): 90%; Post-emergence action against PHBPU in % ([4]; 20 g/ha): 90%; Pre-emergence action against ALOMY ([6]; 20 g/ha): 90%; Post-emergence action against ABUTH ([16]; 5 g/ha): 90%; Post-emergence action against ECHCG in % ([17]; 5 g/ha): 80%; Post-emergence action against ECHCG in % ([17]; 20 g/ha): 90%; Post-emergence action against VERPE in % ([18]; 5 g/ha): 80%; Post-emergence action against VERPE in % ([18]; 20 g/ha): 90%; Post-emergence action against SETVI in % ([19]; 5 g/ha): 100%; Post-emergence action against SETVI in % ([19]; 20 g/ha): 100%; Pre-emergence action against VERPE ([20]; 20 g/ha): 90%; Pre-emergence action against VERPE ([20]; 80 g/ha): 100%
CCn1nnnc1NC(=O)c1ccc(C(F)F)c(C(=O)N(C)C2CC2)c1Cl [Example 2-156] | 100 | 100 | 100 | 100 | 90 | 100 | 100 | 90 | 90 | 100 | 100 | 100 | 90 | 90 | 90 | 90 | 80 | 100 | 100 | 90 | Post-emergence action against ALOMY ([1]; 20 g/ha): 90%; Post-emergence action against PHBPU in % ([4]; 5 g/ha): 80%; Post-emergence action against PHBPU in % ([4]; 20 g/ha): 80%; Pre-emergence action against ALOMY ([6]; 20 g/ha): 90%; Post-emergence action against ECHCG in % ([17]; 20 g/ha): 90%; Post-emergence action against VERPE in % ([18]; 20 g/ha): 80%; Post-emergence action against SETVI in % ([19]; 20 g/ha): 80%; Pre-emergence action against VERPE ([20]; 80 g/ha): 90%; Post-emergence action against AVEFA in % [21]: 90%
CCn1nnnc1NC(=O)c1ccc(C(F)F)c(C(=O)N(C)CC(F)F)c1Cl [Example 2-159] | 100 | 100 | 100 | 100 | 100 | 100 | 100 | 80 | 90 | 90 | 90 | 100 | 90 | 90 | 80 | 90 | 90 | 100 | 100 | 90 | Post-emergence action against ABUTH ([16]; 5 g/ha): 80%; Post-emergence action against ECHCG in % ([17]; 20 g/ha): 90%; Post-emergence action against VERPE in % ([18]; 20 g/ha): 80%; Post-emergence action against SETVI in % ([19]; 20 g/ha): 90%; Pre-emergence action against VERPE ([20]; 80 g/ha): 80%; Post-emergence action against AVEFA in % [21]: 90%
